According to ChEMBL document CHEMBL3286360, “Tuning the antimicrobial pharmacophore to enable discovery of short lipopeptides with multiple modes of action” (Eur J Med Chem, 2014):
Converted amounts (≈) assume the structure as drawn. The source made the active and inactive calls. No cut-off for these calls is given here. Where a SMILES comes first, the peptide text is derived from it. The star is where a group is joined. Stearoyl = CCCCCCCCCCCCCCCCCC(=O)*; Myristoyl = CCCCCCCCCCCCCC(=O)*; Decanoyl = CCCCCCCCCC(=O)*

What was measured:
[1] = Cytotoxicity against human TZM-b1 cells assessed as survival at 40 ug/ml after 2 hrs by flow cytometry; format: cell-based; details: read-out: Survival
Staphylococcus aureus [2] = test: Antimicrobial activity against Staphylococcus aureus ATCC 12600 after 17 to 20 hrs by serial dilution method; format: functional
Escherichia coli [3] = test: Antimicrobial activity against Escherichia coli ATCC 25922 assessed as disruption of membrane integrity measured as PI dye influx at 250 ug/ml after 20 mins by fluorescence microscopy; format: functional
Candida albicans = test: Antimicrobial activity against Candida albicans ATCC 14053 after 17 to 20 hrs by serial dilution method; format: functional
[4] = Cytotoxicity against human TZM-b1 cells assessed as cell death at 40 ug/ml after 1 hr by flow cytometry (reference value: 0 to 0.20 %); format: cell-based; details: tzm-b1, 1 h
Priestia megaterium = test: Binding affinity to Bacillus megaterium pHis1525 DNA at 25 to 50 ug/ml after 30 mins by agarose gel electrophoresis
Escherichia coli [5] = test: Antimicrobial activity against Escherichia coli ATCC 25922 assessed as disruption of membrane integrity measured as PI dye influx at 50 ug/ml after 20 mins by fluorescence microscopy; format: functional, organism-based
Staphylococcus aureus [6] = test: Antimicrobial activity against Staphylococcus aureus ATCC 12600 assessed as cell death at 40 ug/ml after 1 hr by flow cytometry; format: functional
[7] = Cytotoxicity in human erythrocytes assessed as hemolysis at 250 ug/ml after 1 hr relative to control; format: cell-based, Erythrocyte; details: read-out: Activity
Staphylococcus aureus [8] = test: Antimicrobial activity against Staphylococcus aureus ATCC 12600 assessed as disruption of membrane integrity measured as PI dye influx at 250 ug/ml after 20 mins by fluorescence microscopy; format: functional, organism-based
Staphylococcus aureus [9] = test: Antimicrobial activity against Staphylococcus aureus ATCC 12600 assessed as disruption of membrane integrity measured as PI dye influx at 50 ug/ml after 20 mins by fluorescence microscopy; format: functional, organism-based
[10] = Cytotoxicity against human TZM-b1 cells assessed as cell death at 40 ug/ml after 2 hrs by flow cytometry (reference value: 0 to 0.20 %); format: cell-based; details: tzm-b1, 2 h
Escherichia coli [11] = test: Antimicrobial activity against Escherichia coli ATCC 25922 after 17 to 20 hrs by serial dilution method; format: functional
[12] = Cytotoxicity in human erythrocytes assessed as hemolysis at 125 ug/ml after 1 hr relative to control; format: cell-based, Erythrocyte; details: read-out: Activity
[13] = Cytotoxicity against human TZM-b1 cells assessed as cell death at 500 ug/ml after 48 hrs by MTT assay; format: cell-based; details: tzm-b1, 48 h
[14] = Cytotoxicity against human TZM-b1 cells assessed as cell death after 48 hrs by MTT assay; format: cell-based; details: tzm-b1, 48 h
[15] = Cytotoxicity against human TZM-b1 cells assessed as cell death at 125 ug/ml after 48 hrs by MTT assay; format: cell-based; details: tzm-b1, 48 h

Row | Compound | MIC (Staphylococcus aureus [2]) | MIC (Candida albicans) | MIC (Escherichia coli [11]) | other results
1 | CCCCCCCCCC(=O)N[C@@H](CCCNC(=N)N)C(=O)N[C@H](C(=O)N[C@@H](CCCCN)C(=O)N[C@@H](Cc1c[nH]c2ccccc12)C(=O)N[C@@H](CCCCN)C(N)=O)[C@@H](C)CC (Decanoyl-RIKWK-NH2) | 7.8 µg/mL (≈ 8.83 µM) | > 62.5 µg/mL | 15.6 µg/mL (≈ 17.7 µM) | viability at 2 h, 40 ug/ml [1]: > 99%; Activity (Escherichia coli [3]): Active; Activity [4]: 0.074%; Activity (Priestia megaterium): inactive; Activity (Escherichia coli [5]): Active; Activity (Staphylococcus aureus [6]): >95%; hemolysis at 1 h, 250 ug/ml [7]: < 10%; Activity (Staphylococcus aureus [8]): Active; Activity (Staphylococcus aureus [9]): Active; Activity [10]: 0.083%
2 | CCCCCCCCCC(=O)N[C@@H](CCCCN)C(=O)N[C@@H](Cc1c[nH]c2ccccc12)C(=O)N[C@@H](CCCCN)C(N)=O (Decanoyl-Lys-Trp-Lys-NH2) | 31.2 µg/mL (≈ 50.8 µM) | > 62.5 µg/mL | > 31.2 µg/mL | hemolysis at 1 h, 250 ug/ml [7]: < 10%
3 | CCCCCCCCCCCCCC(=O)N[C@@H](CCCNC(=N)N)C(=O)N[C@H](C(=O)N[C@@H](CCCCN)C(=O)N[C@@H](Cc1c[nH]c2ccccc12)C(=O)N[C@@H](CCCCN)C(N)=O)[C@@H](C)CC (Myristoyl-RIKWK-NH2) | 15.6 µg/mL (≈ 16.6 µM) | > 62.5 µg/mL | 15.6 µg/mL (≈ 16.6 µM) | hemolysis at 1 h, 250 ug/ml [7]: 20%
4 | CCCCCCCCCCCCCC(=O)N[C@@H](CCCCN)C(=O)N[C@@H](Cc1c[nH]c2ccccc12)C(=O)N[C@@H](Cc1c[nH]c2ccccc12)C(=O)N[C@@H](CCCCN)C(N)=O (Myristoyl-KWWK-NH2) | 3.9 µg/mL (≈ 4.56 µM) | 15.6 µg/mL (≈ 18.2 µM) | 7.8 µg/mL (≈ 9.11 µM) | hemolysis at 1 h, 125 ug/ml [12]: 56%
5 | CCCCCCCCCCCCCC(=O)N[C@@H](CCCCN)C(=O)N[C@@H](Cc1c[nH]c2ccccc12)C(=O)N[C@@H](CCCCN)C(N)=O (Myristoyl-Lys-Trp-Lys-NH2) | 7.8 µg/mL (≈ 11.6 µM) | > 62.5 µg/mL | 7.8 µg/mL (≈ 11.6 µM) | hemolysis at 1 h, 125 ug/ml [12]: 11%; hemolysis at 1 h, 250 ug/ml [7]: 19%
6 | CCCCCCCCCC(=O)N[C@@H](CCCCN)C(=O)N[C@@H](Cc1c[nH]c2ccccc12)C(=O)N[C@@H](CCCCN)C(=O)N[C@@H](Cc1c[nH]c2ccccc12)C(N)=O (Decanoyl-KWKW-NH2) | 7.8 µg/mL (≈ 9.75 µM) | 31.2 µg/mL (≈ 39 µM) | 7.8 µg/mL (≈ 9.75 µM) | Activity (Priestia megaterium): Active
7 | CCCCCCCCCCCCCCCCCC(=O)N[C@@H](CCCCN)C(=O)N[C@H](C(=O)N[C@@H](Cc1c[nH]c2ccccc12)C(=O)N[C@@H](Cc1c[nH]c2ccccc12)C(=O)N[C@@H](CCCCN)C(N)=O)[C@@H](C)CC (Stearoyl-KIWWK-NH2) | > 31.2 µg/mL | > 62.5 µg/mL | > 31.2 µg/mL | –
8 | CCCCCCCCCCCCCCCCCC(=O)N[C@@H](CCCNC(=N)N)C(=O)N[C@@H](Cc1c[nH]c2ccccc12)C(=O)N[C@@H](CCCNC(=N)N)C(=O)N[C@@H](Cc1c[nH]c2ccccc12)C(N)=O (Stearoyl-RWRW-NH2) | > 31.2 µg/mL | > 62.5 µg/mL | > 31.2 µg/mL | –
9 | CCCCCCCCCCCCCC(=O)N[C@@H](CCCNC(=N)N)C(=O)N[C@@H](CCCCN)C(=O)N[C@@H](Cc1c[nH]c2ccccc12)C(=O)N[C@@H](Cc1c[nH]c2ccccc12)C(=O)N[C@@H](CCCCN)C(N)=O (Myristoyl-RKWWK-NH2) | 7.8 µg/mL (≈ 7.7 µM) | > 62.5 µg/mL | 15.6 µg/mL (≈ 15.4 µM) | –
10 | CCCCCCCCCCCCCC(=O)N[C@@H](CCCNC(=N)N)C(=O)N[C@@H](Cc1c[nH]c2ccccc12)C(=O)N[C@@H](CCCNC(=N)N)C(N)=O (Myristoyl-Arg-Trp-Arg-NH2) | 15.6 µg/mL (≈ 21.5 µM) | > 62.5 µg/mL | 15.6 µg/mL (≈ 21.5 µM) | –
11 | CCCCCCCCCCCCCCCCCC(=O)N[C@@H](CCCNC(=N)N)C(=O)N[C@@H](Cc1c[nH]c2ccccc12)C(=O)N[C@@H](Cc1c[nH]c2ccccc12)C(=O)N[C@@H](CCCNC(=N)N)C(N)=O (Stearoyl-RWWR-NH2) | 31.2 µg/mL (≈ 32.2 µM) | > 62.5 µg/mL | > 31.2 µg/mL | –
12 | CCCCCCCCCC(=O)N[C@@H](CCCNC(=N)N)C(=O)N[C@@H](CCCCN)C(=O)N[C@@H](Cc1c[nH]c2ccccc12)C(=O)N[C@@H](Cc1c[nH]c2ccccc12)C(=O)N[C@@H](CCCCN)C(N)=O (Decanoyl-RKWWK-NH2) | 3.9 µg/mL (≈ 4.08 µM) | 15.6 µg/mL (≈ 16.3 µM) | 3.9 µg/mL (≈ 4.08 µM) | viability at 2 h, 40 ug/ml [1]: > 99%; hemolysis at 1 h, 125 ug/ml [12]: < 10%; CC50 (Escherichia coli [3]; ATCC 25922, 20 min): 115 µg/mL (≈ 120 µM); Activity [14]: Toxic; Activity [4]: 0.072%; Activity (Priestia megaterium): Active; Activity (Escherichia coli [5]): Active; Activity (Staphylococcus aureus [6]): >95%; Activity (Staphylococcus aureus [8]): Active; Activity (Staphylococcus aureus [9]): Active; Activity [10]: 0.128%; Activity [15]: Toxic

Continued, in another order:

Row | MIC (Staphylococcus aureus [2]) | MIC (Candida albicans) | MIC (Escherichia coli [11]) | Compound | other results
13 | 3.9 µg/mL (≈ 4.56 µM) | > 62.5 µg/mL | 7.8 µg/mL (≈ 9.11 µM) | CCCCCCCCCCCCCC(=O)N[C@@H](CCCCN)C(=O)N[C@@H](Cc1c[nH]c2ccccc12)C(=O)N[C@@H](CCCCN)C(=O)N[C@@H](Cc1c[nH]c2ccccc12)C(N)=O (Myristoyl-KWKW-NH2) | hemolysis at 1 h, 125 ug/ml [12]: 17%
14 | 3.9 µg/mL (≈ 3.65 µM) | > 62.5 µg/mL | 7.8 µg/mL (≈ 7.29 µM) | CCCCCCCCCC(=O)N[C@@H](CCCNC(=N)N)C(=O)N[C@H](C(=O)N[C@@H](CCCCN)C(=O)N[C@@H](Cc1c[nH]c2ccccc12)C(=O)N[C@@H](Cc1c[nH]c2ccccc12)C(=O)N[C@@H](CCCCN)C(N)=O)[C@@H](C)CC (Decanoyl-RIKWWK-NH2) | Activity (Priestia megaterium): Active
15 | 15.6 µg/mL (≈ 13.5 µM) | > 62.5 µg/mL | 31.2 µg/mL (≈ 27 µM) | CCCCCCCCCCCCCC(=O)N[C@@H](CCCCN)C(=O)N[C@H](C(=O)N[C@@H](CCCNC(=N)N)C(=O)N[C@@H](Cc1c[nH]c2ccccc12)C(=O)N[C@@H](Cc1c[nH]c2ccccc12)C(=O)N[C@@H](CCCNC(=N)N)C(N)=O)[C@@H](C)CC (Myristoyl-KIRWWR-NH2) | –
16 | 15.6 µg/mL (≈ 12.9 µM) | > 62.5 µg/mL | > 31.2 µg/mL | CCCCCCCCCCCCCCCCCC(=O)N[C@@H](CCCCN)C(=O)N[C@@H](CCCNC(=N)N)C(=O)N[C@H](C(=O)N[C@@H](Cc1c[nH]c2ccccc12)C(=O)N[C@@H](Cc1c[nH]c2ccccc12)C(=O)N[C@@H](CCCNC(=N)N)C(N)=O)[C@@H](C)CC (Stearoyl-KRIWWR-NH2) | –
17 | 62.5 µg/mL | – | > 62.5 µg/mL | H-RKWWK-NH2 | Activity [13]: Non-toxic
18 | 15.6 µg/mL (≈ 17.1 µM) | > 62.5 µg/mL | 15.6 µg/mL (≈ 17.1 µM) | CCCCCCCCCCCCCC(=O)N[C@@H](CCCNC(=N)N)C(=O)N[C@@H](Cc1c[nH]c2ccccc12)C(=O)N[C@@H](CCCNC(=N)N)C(=O)N[C@@H](Cc1c[nH]c2ccccc12)C(N)=O (Myristoyl-RWRW-NH2) | –
19 | 31.2 µg/mL (≈ 42 µM) | > 62.5 µg/mL | > 31.2 µg/mL | CCCCCCCCCC(=O)N[C@@H](CCCCN)C(=O)N[C@@H](CCCCN)C(=O)N[C@@H](Cc1c[nH]c2ccccc12)C(=O)N[C@@H](CCCCN)C(N)=O (Decanoyl-KKWK-NH2) | –
20 | 7.8 µg/mL (≈ 8.55 µM) | > 62.5 µg/mL | 15.6 µg/mL (≈ 17.1 µM) | CCCCCCCCCCCCCC(=O)N[C@@H](CCCNC(=N)N)C(=O)N[C@@H](Cc1c[nH]c2ccccc12)C(=O)N[C@@H](Cc1c[nH]c2ccccc12)C(=O)N[C@@H](CCCNC(=N)N)C(N)=O (Myristoyl-RWWR-NH2) | –
21 | 31.2 µg/mL (≈ 26.4 µM) | > 62.5 µg/mL | > 31.2 µg/mL | CCCCCCCCCCCCCCCCCC(=O)N[C@@H](CCCNC(=N)N)C(=O)N[C@H](C(=O)N[C@@H](CCCCN)C(=O)N[C@@H](Cc1c[nH]c2ccccc12)C(=O)N[C@@H](Cc1c[nH]c2ccccc12)C(=O)N[C@@H](CCCCN)C(N)=O)[C@@H](C)CC (Stearoyl-RIKWWK-NH2) | –
